Laboratory results taken from patent publication US8535617B2, “Blood cell barrier for a lateral flow device” (Kimberly-Clark Worldwide, Inc., priority 2007, dated 2013).

Assays:
[1] = tested on: fresh human blood; experiment: Blood separation on nitrocellulose lateral flow membrane strips with a linoleic acid line
Protocol: (§1) A circle of Whatman filter paper (Qualitative 18.5 cm) was cut into strips (16 cm×2 cm). A thin line of linoleic acid was placed 8 cm from the bottom end of the strip using a syringe with needle, to lay down a thin line of liquid (approximately 5-10 μl). Next, a drop (20 μl) of fresh human blood was placed onto the strip 4 cm up from the bottom. A control strip was prepared in a similar manner except no linoleic acid was placed on the control strip. The strips were then attached to a glass rod, being 6 cm away from each other, using scotch tape. In a manner similar to paper chromatography, the strips were placed into a tall beaker (2 liter volume) containing deionized water (50 ml) in such a manner that the bottom end of the paper strips just entered the water. The water wicked up the vertically hanging strips.
The experiment described in Example 1 was repeated but using nitrocellulose lateral flow membrane strips (Bangs Laboratories Inc., Fishers Ind.) in place of the paper strips. The same procedure was conducted and at the end of the flow period (20 minutes) the strips were allowed to dry. […] In contrast, the control strip allowed the blood to travel up the entire length of the strip. […]

[2] = tested on: fresh human blood; experiment: Blood separation on filter paper strips with a linoleic acid line, eluted with water; conditions: Whatman filter paper strip
Protocol: as §1
The system was allowed to run for another 20 minutes after which time the strips were taken out and allowed to air dry. Both strips were then sprayed with a ninhydrin spray to detect amino acids. […] The control had traces present along the length and a strong presence where the blood spot had stopped.

CCCCCC=CCC=CCCCCCCCC(=O)O [linoleic acid, 9,12-octadecadienoic acid]
movement of blood spot on strip ([1]; nitrocellulose lateral flow membrane strip, flow period 20 minutes): halted at the linoleic acid line | phenolphthalin / 3% hydrogen peroxide spot test for dried blood and hemoglobin ([1]; nitrocellulose strip, beyond the linoleic acid line, visual pink color): no pink color developed | movement of blood spot on strip ([2]; 20 μl blood, line of approximately 5-10 μl linoleic acid, eluted by deionized water): halt at the line where the linoleic acid had been placed | ninhydrin spray detection of amino acids ([2]; after air drying, visual purple color): presence of amino acids after the line
